Values after ≈ are worked out from the molar mass of the structure shown.
system: HUVECs (human umbilical vein endothelial cells); test: Inhibitory effect of fumagillol derivative on HUVEC cell growth (colorimetry); assay type: cell-based; conditions: Homo sapiens, HUVEC, HUVEC growth, cultured 2–3 days with compound, absorption at 490 nm; read-out: IC50
Experimental: Using the HUVECs (human umbilical vein endothelial), the effect of the fumagillol derivative of the present invention on cell growth was evaluated.
The HUVECs were added to M199 medium supplemented with 20% FBS (fetal bovine serum), 100 U/ml penicillin, 100 μg/ml streptomycin, 1.5 g/L sodium bicarbonate, 0.1 mg/ml endothelial cell growth supplement (Sigma) and 0.1 mg/ml heparin (Sigma), after which the cells were incubated in an incubator at 37° C. under 5% CO2. Cells were subcultured a maximum of 8 times before being discarded.
In order to evaluate inhibitory activity of the fumagillin derivative on growth of HUVECs, the inventive compound was dissolved in DMSO and its concentration was adjusted from 10 mM to 1 mM. Cells were aliquotted to 96 well plates at a density of 2×10^3 cells per well and incubated for about 12–24 hours to be properly attached to the plate. Thereafter, the medium was replaced with new medium. The cells were treated with the compound obtained from each of the above examples at various concentration ranges of from 10 μM to […], and cultured for 2–3 days, followed by removing 100 μl of the medium from each well.
Colorimetry was performed to determine the extent of cell growth. The cells on each plate was added with 20 μl of aqueous one solution and then incubated at 37° C. under 5% CO2 for 2 hours. Using a 96-well plate reader, absorption was measured at 490 nm.
As such, a conventional TNP-470 having angiogenesis inhibitory effect was used as a control.

| Structure (SMILES) | IC50 |
| --- | --- |
| CCCCC(C)NCC(=O)O[C@@H]1CC[C@]2(CO2)[C@@H]([C@@]2(C)OC2CC=C(C)C)[C@@H]1OC (stereo partly shown) [Ex. 51, 6-O-(1-methyl-pentylamino)acetyl fumagillol] | 32000 ng/mL (≈ 75500 nM) |
| COC(=O)C(NCC(=O)O[C@@H]1CC[C@]2(CO2)[C@@H]([C@@]2(C)OC2CC=C(C)C)[C@@H]1OC)C(C)(C)C (stereo partly shown) [Ex. 75, 6-O-(methyl-2-amino-3,3-dimethylbutanoate)acetyl fumagillol] | 2400 ng/mL (≈ 5130 nM) |
| CO[C@@H]1[C@H](OC(=O)CNC(C)CCC=C(C)C)CC[C@]2(CO2)[C@H]1[C@@]1(C)OC1CC=C(C)C (stereo partly shown) [Ex. 58, 6-O-(1,5-dimethyl-4-hexenylamino)acetyl fumagillol] | 415 ng/mL (≈ 923 nM) |
| CO[C@@H]1[C@H](OC(=O)CNc2ccc(C(F)(F)F)cc2)CC[C@]2(CO2)[C@H]1[C@@]1(C)OC1CC=C(C)C (stereo partly shown) [Ex. 32, 6-O-(4-trifluoromethylaniline)acetyl fumagillol] | 128 ng/mL (≈ 265 nM) |
| CO[C@@H]1[C@H](OC(=O)CNC2CCC2)CC[C@]2(CO2)[C@H]1[C@@]1(C)OC1CC=C(C)C (stereo partly shown) [Ex. 64, 6-O-(cyclobutylamino)acetyl fumagillol] | 0.07 ng/mL (≈ 0.178 nM) |
| CO[C@@H]1C(OC(=O)CNC2CC2)CC[C@](O)(CCl)[C@H]1C1(C)OC1CC=C(C)C (stereo in doubt) [Ex. 78, 4-((cyclopropylamino)acetyl)oxy-2-(1,2-epoxy-1,5-dimethyl-4-hexenyl)-3-methoxy-1-chloromethyl-1-cyclohexanol] | 0.014 ng/mL (≈ 0.0337 nM) |
| COc1ccc(NCC(=O)O[C@@H]2CC[C@]3(CO3)[C@@H]([C@@]3(C)OC3CC=C(C)C)[C@@H]2OC)c(OC)c1OC (stereo partly shown) [Ex. 25] | 0.31 ng/mL (≈ 0.613 nM) |
| CCCNCC(=O)O[C@@H]1CC[C@]2(CO2)[C@@H]([C@@]2(C)OC2CC=C(C)C)[C@@H]1OC (stereo partly shown) [Ex. 43, 6-O-(propylamino)acetyl fumagillol] | 2400 ng/mL (≈ 6290 nM) |
| CO[C@@H]1[C@H](OC(=O)NC(=O)CCl)CC[C@]2(CO2)[C@H]1[C@@]1(C)O[C@@H]1CC=C(C)C [TNP-470, reference compound] | 29 ng/mL (≈ 72.2 nM) |
| COC(CNCC(=O)O[C@@H]1CC[C@]2(CO2)[C@@H]([C@@]2(C)OC2CC=C(C)C)[C@@H]1OC)OC (stereo partly shown) [Ex. 77, 6-O-(2,2-dimethoxyethylamino)acetyl fumagillol] | 330 ng/mL (≈ 772 nM) |
| COc1c(C(C)C)cc(NCC(=O)O[C@@H]2CC[C@]3(CO3)[C@@H]([C@@]3(C)OC3CC=C(C)C)[C@@H]2OC)cc1C(C)C (stereo partly shown) [Ex. 14, 6-O-(3,5-diisopropyl-4-methoxyaniline)acetyl fumagillol] | 14 ng/mL (≈ 26.4 nM) |

same assay, conditions: Homo sapiens; HUVEC growth, cultured 2–3 days with compound, absorption at 490 nm; read-out: IC50

| Structure (SMILES) | IC50 |
| --- | --- |
| COc1ccc(NCC(=O)O[C@@H]2CC[C@]3(CO3)[C@@H]([C@@]3(C)OC3CC=C(C)C)[C@@H]2OC)cc1OC (stereo partly shown) [Ex. 4, 6-O-(3,4-dimethoxyaniline)acetyl fumagillol] | 0.08 ng/mL (≈ 0.168 nM) |
| C=CCC(NCC(=O)O[C@@H]1CC[C@]2(CO2)[C@@H]([C@@]2(C)OC2CC=C(C)C)[C@@H]1OC)C(=O)OC (stereo partly shown) [Ex. 76, 6-O-(allylglycinemethylester)acetyl fumagillol] | 1490 ng/mL (≈ 3300 nM) |

— patent publication US7087768B2, “Fumagillol derivatives and preparing method thereof” (Equispharm Co., Ltd., priority 2001, dated 2006)
